Assay results from ChEMBL document CHEMBL1201862, “PubChem BioAssay data set” (2004).
The source made the active and inactive calls.

Tests used:
[1] = Luminescence Cell-Based Dose Confirmation to Identify Activators of 5'UTR Stem-Loop Driven Alpha-Synuclein mRNA Translation in H4 Neuroglioblastoma Cells. [Related pubchem assays: 1829 (Project Summary), 1814 (Primary HTS)]; assay type: functional
[2] = Luminescence Cell-Based Dose Response to Identify Activators of Luciferase Translation or Activity in H4-C Neuroglioblastoma Cells. [Related pubchem assays: 1829 (Project Summary), 1814 (Primary HTS)]; assay type: functional
H4 = test: Luminescence Cell-Based Dose Response HTS to Identify Activators of 5'UTR Stem-Loop Driven Prion Protein mRNA Translation in H4 Neuroglioblastoma Cells. [Related pubchem assays: 1829 (Project Summary), 1814 (Primary HTS)]; assay type: functional; settings: Homo sapiens
[3] = Luminescence Cell-Based Dose Response to Identify Activators of 5'UTR Stem-Loop Driven Prion Protein mRNA Translation in H4-C Neuroglioblastoma Cells. [Related pubchem assays: 1829 (Project Summary), 1814 (Primary HTS)]; assay type: functional
[4] = molecular target: Glyceraldehyde-3-phosphate dehydrogenase (Homo sapiens, UniProt P04406)
Bcl-2-related protein A1 [5] = molecular target: T1, Bcl-2-related protein A1 (Mus musculus, UniProt Q07440); test: Bfl-1 binding inhibitors, SAR follow-up, biochemical, fluorescence polarization (AID 1070)
T1 sequence (Q07440 whole entry): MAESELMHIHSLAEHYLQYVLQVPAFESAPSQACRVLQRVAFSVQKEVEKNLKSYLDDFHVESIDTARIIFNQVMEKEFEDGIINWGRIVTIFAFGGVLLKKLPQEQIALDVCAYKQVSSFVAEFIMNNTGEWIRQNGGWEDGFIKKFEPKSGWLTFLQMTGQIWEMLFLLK

Bcl-2-related protein A1 [6] = molecular target: T1, Bcl-2-related protein A1; test: small-molecule antagonists of Bfl-1/BH3 interaction – biochemical, TR-FRET, mouse Bfl-1, confirmation (AID 621);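 also: TR-FRET binding of GST-Bfl-1 to FITC-labelled Bid peptide via terbium antibody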
SUMO-activating enzyme [7] = molecular target: T2, SUMO-activating enzyme (Homo sapiens, UniProt Q9UBT2); test: blockers of SAE1/SAE2–UBC9 SUMO transfer – biochemical, HTRF, uHTS, primary screen (AID 2006); assay type: protein-complex assay
SUMO-activating enzyme [8] = molecular target: T2, SUMO-activating enzyme; test: blockers of UBC9-mediated SUMO conjugation – biochemical, AlphaScreen, SUMOylation inhibitor project, confirmation (AID 2018); assay type: functional
[9] = growth inhibition of PfATP4-mutant resistant parasites – NITD609-resistant line, SYBR Green, dry powder, dose response (AID 1159571); assay type: functional, cell-based;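 also: parasites synchronized at ring stage by sorbitol before testing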
[10] = growth inhibition of yeast DHODH-expressing 3D7 parasites – SYBR Green, dry powder samples, dose response (AID 1159570); assay type: functional, cell-based;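 also: parasite growth measured after 72 hours of compound exposure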
[11] = P. falciparum Dd2 growth inhibitors, dose response, SYBR Green, cherry-picked samples (AID 1159567); assay type: functional, cell-based
[12] = toxicity to human HepG2 hepatoma cells – cell-based, plate reader, dry powder samples, cytotoxicity control, dose response (AID 1159569); assay type: functional;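 also: inhibitor potency with signal falling toward the positive control level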
[13] = Dd2 malaria parasite growth inhibition potency – SYBR Green, dry powder samples, dose response (AID 1159566); assay type: functional, cell-based;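 also: potency for growth inhibition with lower SYBR green DNA signal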
[14] = antiviral protection against BTV-induced cell death – arbovirus, BSR cells, confirmation (AID 1250); assay type: functional;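 also: protection from viral cytopathic effect measured as cell viability by ATP luminescence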
[15] = viability loss in Vero cells – cytotoxicity control for Vif-APOBEC3G degradation inhibitor project, dose response (AID 1117358); assay type: functional; settings: Vero
[16] = molecular target: T3, Ubiquitin-conjugating enzyme E2 N (Homo sapiens, UniProt P61088); assay type: functional
T3 sequence (P61088 whole entry): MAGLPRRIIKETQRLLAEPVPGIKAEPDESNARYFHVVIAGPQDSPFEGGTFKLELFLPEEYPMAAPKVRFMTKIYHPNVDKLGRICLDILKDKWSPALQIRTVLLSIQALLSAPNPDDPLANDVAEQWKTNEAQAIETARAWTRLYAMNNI

[17] = molecular target: T3, Ubiquitin-conjugating enzyme E2 N; assay type: functional; remark: listed apart in the source
Bcl-2-related protein A1 [18] = molecular target: T1, Bcl-2-related protein A1; assay type: functional
H9c2 = test: cells; assay type: functional, cell-based; settings: Rattus norvegicus, H9c2, Myocardium;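 also: confirmatory concentration-response retest of ultra-high-throughput screening hits for modulation of myocardial damage; cell death induced by hydrogen peroxide oxidative stress; compound pretreatment for 60 min then peroxide exposure for 2 h; potency is for protecting the cells against peroxide damage rather than for killing them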
Protein Tat = molecular target: T4, Protein Tat (Human immunodeficiency virus type 1 group M subtype B (isolate HXB2)(HIV-1), UniProt P04608); assay type: functional;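 also: tat binding to TAR RNA read out by fluorescence polarization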
T4 sequence (P04608 whole entry): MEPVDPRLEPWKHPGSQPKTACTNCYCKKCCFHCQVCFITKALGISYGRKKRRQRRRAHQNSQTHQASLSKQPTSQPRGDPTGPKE

[19] = microbe, parasite or virus in culture; assay type: functional; settings: Mycobacterium tuberculosis

T2 sequence (Q9UBE0 whole entry): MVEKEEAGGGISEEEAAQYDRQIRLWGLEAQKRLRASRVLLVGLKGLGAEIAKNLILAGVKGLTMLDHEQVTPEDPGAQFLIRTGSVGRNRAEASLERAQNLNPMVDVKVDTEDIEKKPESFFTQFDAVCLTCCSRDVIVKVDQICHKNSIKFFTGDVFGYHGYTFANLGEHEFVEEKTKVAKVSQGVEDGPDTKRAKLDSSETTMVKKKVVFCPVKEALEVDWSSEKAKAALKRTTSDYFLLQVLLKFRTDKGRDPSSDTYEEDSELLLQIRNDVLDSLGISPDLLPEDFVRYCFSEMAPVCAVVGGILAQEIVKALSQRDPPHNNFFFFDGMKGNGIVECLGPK
T2 sequence (Q9UBT2 whole entry): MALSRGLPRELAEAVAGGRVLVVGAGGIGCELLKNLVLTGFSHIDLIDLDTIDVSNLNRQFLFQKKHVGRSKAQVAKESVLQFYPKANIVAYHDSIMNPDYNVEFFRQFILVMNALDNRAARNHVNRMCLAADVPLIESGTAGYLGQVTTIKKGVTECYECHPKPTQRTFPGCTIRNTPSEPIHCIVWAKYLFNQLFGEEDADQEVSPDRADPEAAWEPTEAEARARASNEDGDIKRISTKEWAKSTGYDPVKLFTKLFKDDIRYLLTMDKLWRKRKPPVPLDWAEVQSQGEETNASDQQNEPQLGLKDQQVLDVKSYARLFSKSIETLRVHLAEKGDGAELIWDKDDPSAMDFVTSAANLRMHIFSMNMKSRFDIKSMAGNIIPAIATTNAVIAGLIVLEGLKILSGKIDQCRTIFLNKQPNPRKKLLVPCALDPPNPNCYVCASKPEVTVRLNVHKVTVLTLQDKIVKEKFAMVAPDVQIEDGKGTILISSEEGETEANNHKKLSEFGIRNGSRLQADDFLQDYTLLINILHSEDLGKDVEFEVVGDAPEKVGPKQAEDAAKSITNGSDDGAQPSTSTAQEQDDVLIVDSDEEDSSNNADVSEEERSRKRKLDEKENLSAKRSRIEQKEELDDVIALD
Glyceraldehyde-3-phosphate dehydrogenase, sequence (P04406 whole entry): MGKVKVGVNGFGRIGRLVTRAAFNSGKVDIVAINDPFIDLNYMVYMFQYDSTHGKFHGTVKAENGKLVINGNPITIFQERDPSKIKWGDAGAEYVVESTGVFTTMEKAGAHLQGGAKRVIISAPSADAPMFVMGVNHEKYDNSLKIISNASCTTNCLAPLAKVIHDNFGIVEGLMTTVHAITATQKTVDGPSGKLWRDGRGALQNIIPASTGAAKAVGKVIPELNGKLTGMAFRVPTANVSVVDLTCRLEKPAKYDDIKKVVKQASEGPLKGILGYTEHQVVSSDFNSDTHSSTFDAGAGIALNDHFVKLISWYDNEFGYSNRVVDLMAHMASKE

With CCCCOc1[nH]cnc2c3cc(OC)ccc3nc1-2 as the compound, how does the EC50 [1] read?
Its EC50 is 0.239 µM (active).

What about the EC50 [2] of the same compound?
Its EC50 is 0.403 µM (active).

And the EC50 (H4)?
Its EC50 is < 0.1 µM (active).

What about the EC50 [3] of the same compound?
The EC50 was 0.274 µM (active).

Which results are given for Cc1ccc(Cl)c(N2C(=O)C(Cl)=C(N3CCN(C)CC3)C2=O)c1Cl?
IC50 [4]: > 100 µM (not active); IC50 (Bcl-2-related protein A1 [5]): 23.9 µM (active); IC50 (Bcl-2-related protein A1 [6]): 11.1 µM (active)

Which results are given for CCCCn1c(=O)[nH]c(=O)c2c1nc(-c1ccc(-c3ccc(F)cc3)o1)n2C?
IC50 (SUMO-activating enzyme [7]): > 100 µM (inactive); IC50 (SUMO-activating enzyme [8]): > 100 µM (inactive)

Which results are given for COc1ccc2c3c(n(C)c2c1)[C@H](CO)N(CC1CC1)CC31CN(C(=O)c2ccc3c(c2)OCO3)C1?
AC50 [9]: 1.28 µM (active); AC50 [10]: 1.24 µM (active); AC50 [11]: 1.85 µM (active); AC50 [12]: > 100 µM (inactive); AC50 [13]: 1.26 µM (active)

Which IC50 [14] does the source give for CS(=O)(=O)N(CC(O)Cn1c2ccccc2c2ccccc21)c1ccccc1 (stereo not drawn) here?
The IC50 was 33 µM (active).

Which CC50 [15] does the source give for O=C(NCc1ccccc1)/C(=C/c1ccc(OC(F)F)cc1)c1ccccc1 here?
The CC50 was 34.5 µM (active).

Which results are given for O=C1c2cccc3cccc(c23)N1Cc1cccc(F)c1?
IC50 [16]: 6.16 µM (active); IC50 [17]: 16.6 µM (active); IC50 (Bcl-2-related protein A1 [18]): > 20 µM (inactive)

With c1ccc(CN2CCN(CCCNc3ccc4nnc(-c5ccccc5)n4n3)CC2)cc1 as the compound, how does the IC50 (H9c2) read?
Its IC50 is > 79 µM (inactive).

What about the IC50 (Protein Tat) of the same compound?
Its IC50 is > 100 µM (active).

And the CC50 [19]?
The CC50 was 35.6 µM (active).

Which IC50 [14] does the source give for Cc1ccc(-c2cc(C(F)(F)F)c(C#N)c(O)n2)cc1 here?
The IC50 was 32.6 µM (active).
